This is an account of results in patent US11541056B2, “3-hydroxy-N-(3-(7H-pyrrolo[2,3-d]pyrimidin-4-yl)phenyl)pyrrolidine-1-carboxamide derivatives” (NOVARTIS AG, priority 2018, dated 2023).

Assay [1] relates to TMD8 cells. Put plainly: Resazurin cell viability assay in DLBCL cells (TMD8). It is filed as cell-based. To be noted: TMD8 cells (BTK dependent), 50% growth inhibition, read-out: TMD8 Prol GI50. As to the method: Compounds of the invention were tested in the following cellular assays. The terms in Table 1 are defined as follows: DC50 refers to the concentration at which 50% maximal degradation was observed; deg Amax is the extent of degradation and the value refers to the % protein remaining at the concentration at which maximum degradation is seen; Prol GI50 refers to the proliferation data and defines the concentration at which 50% growth inhibition was observed compared to the vehicle treated control at the end of the incubation time. TMD8 cells are BTK dependent and OCI-LY3 cells are BTK independent.
Cell Viability Assay in DLBCL (Diffuse Large B-Cell Lymphoma) Cells:
The effect of the BTK compounds on cell proliferation was measured by a Resazurin (Sigma, #R7017) based cell viability assay. TMD8 (BTK compound sensitive) and OCI-LY3 (BTK compound insensitive) cells were incubated for 72 h at 37° C. and 5% CO2 with the corresponding compound. Resazurin is a non-toxic, cell-permeable substrate that is virtually non-fluorescent. Upon entering living cells, Resazurin (Sigma, #R7017) is reduced to highly fluorescent Resorufin. The metabolic activity was assessed by measuring the fluorescence signal (ex. 530 nm; em. 600 nm).
TMD8 and OCI-Ly3 cells were seeded at day 0 in triplicates at a cell density of 1×10^4 cells per 150 μl/well in a 96-well plate (Costar #3904). Additional plates were prepared, in order to assess the basal metabolic activity of both cell lines at the beginning of the experiment. For these reference plates, Resazurin (Sigma, #R7017) was added to a final concentration of 13 μg/ml 3 h post seeding and was incubated for 2 h at 37° C. and 5% CO2. Following incubation, the fluorescent signal intensity of the 96-well plates was measured on a Mithras LB940 multimode plate reader at 530/600 nm (Berthold Technologies, Germany).
In parallel, 3 h post-seeding, test-plates were treated with compound at various concentrations, or with vehicle (DMSO) alone for 3 days. The compound addition to the plates was performed by using a HP D300 digital dispenser (TECAN, Switzerland). The compounds were tested in triplicate, 8-point serial dilution (1:4), with a start concentration of 10 μM for OCI-LY3 and 1 μM for the TMD8 cells, respectively. To assess the relative proliferation of the cells, Resazurin was added to each well directly to the medium to a final concentration of 13 μg/ml. The plates were incubated for 2 h at 37° C. and 5% CO2 to result in a 72 h endpoint. Following incubation, the fluorescent signal intensity of the 96-well plates were measured on a Mithras LB940 multimode plate reader at 530/600 nm (Berthold Technologies, Germany). The formation of Resorufin dye directly correlates with the number of metabolically active cells. For each triplicate treatment the mean and standard deviation were calculated and analyzed via curve fitting software to determine the respective compound concentration resulting in 50% growth inhibition (GI50) values. For each compound GI50 values were typically determined from at least 2 entirely independent experiments.
TMD8 cells were acquired through a license agreement with Tokyo Medical and Dental University, Japan. Cells are cultivated in MEM Alpha (BioConcept, #1-23F01-I, lot. LB04262P) supplemented with 10% FCS (HyClone, GE #SH30066.03, lot AB217603), 2 mM L-Glutamine (BioConcept, #5-10K50-H, lot. LA03467P), 1% Pen/Strep (BioConcept, #4-01F00-H, lot. LB04235P).
(Resazurin is reduced to fluorescent resorufin, in cell work by metabolically active cells.)

In assay [2] the target is T1, IKZF3-GFP (Homo sapiens, UniProt Q9UKT9).
T1 construct: gateway cloning of IKZF3 from a pENTR221-IKZF3(STOP-Leu) construct into the previously described pLenti6-DEST-GFP-Ires-RFP vector; expressed in transfected cells; host or cells: HEK293A cells (Invitrogen R70507), lentiviral transduction with pLenti6-IKZF3-GFP-Ires-RFP, blasticidin-selected
T1 sequence (Q96SW2 whole entry partner): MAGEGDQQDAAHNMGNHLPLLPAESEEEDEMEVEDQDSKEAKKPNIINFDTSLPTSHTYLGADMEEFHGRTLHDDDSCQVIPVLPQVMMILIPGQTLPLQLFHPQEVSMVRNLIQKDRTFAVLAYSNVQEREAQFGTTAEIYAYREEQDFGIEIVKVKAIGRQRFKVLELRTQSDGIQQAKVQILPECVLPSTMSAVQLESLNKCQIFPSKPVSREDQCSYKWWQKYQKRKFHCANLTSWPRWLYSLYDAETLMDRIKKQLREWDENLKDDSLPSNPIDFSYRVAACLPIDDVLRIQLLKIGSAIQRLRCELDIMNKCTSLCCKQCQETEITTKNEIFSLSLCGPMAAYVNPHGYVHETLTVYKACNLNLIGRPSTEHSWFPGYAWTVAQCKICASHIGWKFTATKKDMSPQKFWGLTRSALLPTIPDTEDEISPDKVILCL
T1 sequence (Q16531 whole entry partner): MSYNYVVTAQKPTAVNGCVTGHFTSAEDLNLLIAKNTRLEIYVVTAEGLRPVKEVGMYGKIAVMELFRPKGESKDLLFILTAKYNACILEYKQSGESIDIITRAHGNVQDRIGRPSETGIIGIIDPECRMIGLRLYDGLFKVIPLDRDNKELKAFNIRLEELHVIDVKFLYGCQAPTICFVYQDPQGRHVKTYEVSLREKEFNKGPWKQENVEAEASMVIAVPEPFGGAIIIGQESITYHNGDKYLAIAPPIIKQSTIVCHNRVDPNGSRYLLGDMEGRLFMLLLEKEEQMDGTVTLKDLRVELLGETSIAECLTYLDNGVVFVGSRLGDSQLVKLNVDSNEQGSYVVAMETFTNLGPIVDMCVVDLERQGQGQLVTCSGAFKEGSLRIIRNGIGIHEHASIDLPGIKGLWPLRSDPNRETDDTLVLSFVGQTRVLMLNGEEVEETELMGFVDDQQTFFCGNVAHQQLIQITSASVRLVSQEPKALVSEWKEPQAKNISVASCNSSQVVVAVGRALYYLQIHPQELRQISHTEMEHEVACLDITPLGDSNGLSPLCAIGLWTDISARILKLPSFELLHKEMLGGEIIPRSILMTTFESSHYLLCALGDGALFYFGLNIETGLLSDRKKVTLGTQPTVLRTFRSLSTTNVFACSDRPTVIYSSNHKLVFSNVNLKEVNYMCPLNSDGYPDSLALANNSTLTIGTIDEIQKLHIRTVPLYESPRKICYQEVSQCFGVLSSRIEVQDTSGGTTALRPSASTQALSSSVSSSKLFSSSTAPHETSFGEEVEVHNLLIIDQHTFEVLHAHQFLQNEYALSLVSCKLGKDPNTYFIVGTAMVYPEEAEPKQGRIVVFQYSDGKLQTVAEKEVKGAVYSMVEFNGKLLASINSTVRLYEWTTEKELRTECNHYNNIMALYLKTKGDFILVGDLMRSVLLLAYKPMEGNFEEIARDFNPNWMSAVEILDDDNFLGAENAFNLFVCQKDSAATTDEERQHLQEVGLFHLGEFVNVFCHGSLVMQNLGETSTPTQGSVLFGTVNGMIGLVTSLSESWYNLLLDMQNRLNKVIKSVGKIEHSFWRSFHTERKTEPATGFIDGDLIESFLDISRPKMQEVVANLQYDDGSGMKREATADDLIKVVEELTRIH
T1 sequence (Q9UKT9 whole entry): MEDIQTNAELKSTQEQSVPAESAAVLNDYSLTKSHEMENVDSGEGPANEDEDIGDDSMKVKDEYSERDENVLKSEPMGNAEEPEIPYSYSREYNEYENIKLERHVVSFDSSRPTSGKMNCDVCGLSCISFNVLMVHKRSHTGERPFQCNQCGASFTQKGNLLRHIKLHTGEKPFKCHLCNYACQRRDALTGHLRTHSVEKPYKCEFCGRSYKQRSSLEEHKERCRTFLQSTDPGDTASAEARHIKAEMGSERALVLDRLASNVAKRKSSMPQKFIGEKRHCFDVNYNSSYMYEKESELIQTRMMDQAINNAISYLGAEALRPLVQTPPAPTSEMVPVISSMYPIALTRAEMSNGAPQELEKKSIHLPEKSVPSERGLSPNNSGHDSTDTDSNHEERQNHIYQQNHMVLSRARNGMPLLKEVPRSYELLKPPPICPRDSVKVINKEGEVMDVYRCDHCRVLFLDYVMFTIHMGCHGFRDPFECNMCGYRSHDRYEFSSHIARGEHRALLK
In words: IKZF3-GFP protein abundance flow cytometry assay in HEK293A cells. To be noted: 24 h, Table 1; for IKZF3 deg Amax %: % protein remaining at maximum degradation. It is filed as cell-based. As to the method:
Compounds of the invention were tested in the following cellular assays. […] TMD8 cells are BTK dependent and OCI-LY3 cells are BTK independent.
BTK-GFP and IKZF3-GFP Protein Abundance Flow Cytometry Assay in HEK293A Cells:
Degradation of BTK or IKZF3 was measured in HEK293A cells (Invitrogen R70507) expressing either BTK-GFP and RFP or IKZF3-GFP and RFP from a stably integrated bicistronic BTK-GFP-iresRFP or IKZF3-GFP-iresRFP construct, respectively. Reduction of the GFP signal measured by flow cytometry served as readout for BTK or IKZF3 degradation after degrader treatment.
Stable HEK293A-BTK-GFP-iresRFP cells were maintained in complete growth medium (DMEM high Glucose+10% FCS+1% L-Glutamine+1% NEAA+1% NaPyr.) with passaging performed twice per week. On Day 0, HEK293A-BTK-GFP-iresRFP or HEK293A-IKZF3-GFP-iresRFP and HEK293A-iresRFP cells were seeded at 10,000 cells/well in a 96-well microtiter plate in 260 μl complete medium. On Day 1, cells were treated in duplicate with 10-point 1:3 dilution series of compound using the HP D300 Digital Dispenser (Tecan). DMSO concentrations were normalized across the plate to 0.1%. On Day 2, after 24 h of incubation at 37° C., treatment media was discarded, cells rinsed with 100 ul/well PBS and then detached using 40 ul trypsin/well for 5 min. Trypsin was neutralized with 100 ul/well PBS+20% FCS). Flow cytometry was performed on the samples using the BD FACS CANTO II (Becton Dickinson). Cell identification was then performed using forward (FSC) vs. side scatter (SSC) plots. Single cell discrimination is performed using SSC-Width (SSC-W) vs. SSC-Height (SSC-H) plots. Median GFP values for 5,000 single cells are used to determine BTK levels. Median GFP values from HEK293A-iresRFP are used as a background signal and thus defining 0% BTK signal. Median GFP values from DMSO treated HEK293A-BTK-GFP-iresRFP or HEK293A-IKZF3-GFP-iresRFP are used to define 100% BTK signal for subsequent DC50 curves (concentration at 50% BTK degradation). GFP and RFP are read in the channels called FITC and PE, respectively.
Concentration response curves plotting relative reduction of the GFP signal (measured by flow cytometry) versus 10 compound concentrations (starting concentration 10 μM, 3 fold dilution steps) of the compounds allowed generation of DC50 values.
Data is shown in Table 2, in which, DC50 refers to the concentration at which 50% maximal degradation was observed; deg Amax is the extent of degradation and the value refers to the % protein remaining at the concentration at which maximum degradation is seen.
On the technique in general: In flow cytometry, cells or beads pass a laser one at a time.

Like-named read-outs stand apart in the source and are kept apart here. Bounds are passed on as bounds.

By GI50 is commonly meant the concentration at which growth is held to half of that of the control. As for `COc1ccc(C(=O)N2CCC3(CCN(Cc4ccc(-c5cc6c(-c7cc(F)cc(NC(=O)N8C[C@@H](CC(C)C)[C@H](O)C8)c7C)ncnc6[nH]5)cc4)CC3)CC2)cc1N1CCC(=O)NC1=O` (racemic) [Compound 5, trans-rac-N-(3-(6-(4-((9-(3-(2,4-Dioxotetrahydropyrimidin-1(2H)-yl)-4-methoxybenzoyl)-3,9-diazaspiro[5.5]undecan-3-yl)methyl)phenyl)-7H-pyrrolo[2,3-d]pyrimidin-4-yl)-5-fluoro-2-methylphenyl)-3-hydroxy-4-isobutylpyrrolidine-1-carboxamide], the GI50 in assay [1] (72 h) turned out to be 0.73 nM. In addition, in assay [2], the “IKZF3 deg Amax %” value is listed as 103.7% and the DC50 is greater than 3300 nM.

As to `COc1ccc(C(=O)N2CCC3(CCN(Cc4ccc(-c5cc6c(-c7cc(F)cc(NC(=O)N8C[C@@H](CC(C)C)[C@H](O)C8)c7C)ncnc6[nH]5)cc4)CC3)CC2)cc1N1CCC(=O)NC1=O` [Compound 1, (3S,4R)—N-(3-(6-(4-((9-(3-(2,4-Dioxotetrahydropyrimidin-1(2H)-yl)-4-methoxybenzoyl)-3,9-diazaspiro[5.5]undecan-3-yl)methyl)phenyl)-7H-pyrrolo[2,3-d]pyrimidin-4-yl)-5-fluoro-2-methylphenyl)-3-hydroxy-4-isobutylpyrrolidine-1-carboxamide], in assay [1] (Homo sapiens, TMD8, 72 h), the GI50 stood at 14 nM. In assay [2], the “IKZF3 deg Amax %” value is given as 102.7% and the DC50 was greater than 1100 nM.

`COc1ccc(C(=O)N2CCC(OCCN3CCN(Cc4ccc(-c5cc6c(-c7cc(F)cc(NC(=O)N8C[C@H](CC(C)C)[C@@H](O)C8)c7C)ncnc6[nH]5)cc4)CC3)CC2)cc1N1CCC(=O)NC1=O` [Compound 2, (3R,4S)—N-(3-(6-(4-((4-(2-((1-(3-(2,4-Dioxotetrahydropyrimidin-1 (2H)-yl)-4-methoxybenzoyl)piperidin-4-yl)oxy)ethyl)piperazin-1-yl)methyl)phenyl)-7H-pyrrolo[2,3-d]pyrimidin-4-yl)-5-fluoro-2-methylphenyl)-3-hydroxy-4-isobutylpyrrolidine-1-carboxamide]: the GI50 in assay [1] (Homo sapiens, TMD8, 72 h) amounted to 0.31 nM. In assay [2], the “IKZF3 deg Amax %” value is listed as 101.8% and the DC50 was greater than 3300 nM.

On to `COc1ccc(C(=O)N2CCC3(CCN(Cc4ccc(-c5cc6c(-c7cc(F)cc(NC(=O)N8C[C@H](CC(C)C)[C@@H](O)C8)c7C)ncnc6[nH]5)cc4)CC3)CC2)cc1N1CCC(=O)NC1=O` [Compound 6, (3R,4S)—N-(3-(6-(4-((9-(3-(2,4-Dioxotetrahydropyrimidin-1(2H)-yl)-4-methoxybenzoyl)-3,9-diazaspiro[5.5]undecan-3-yl)methyl)phenyl)-7H-pyrrolo[2,3-d]pyrimidin-4-yl)-5-fluoro-2-methylphenyl)-3-hydroxy-4-isobutylpyrrolidine-1-carboxamide], for which the GI50 in assay [1] (Homo sapiens, TMD8, 72 h) came to 0.45 nM. In assay [2], the “IKZF3 deg Amax %” value was 93.5% and the DC50 was greater than 3300 nM.

Regarding `COc1ccc(C(=O)N2CCC(OC3CCN(Cc4ccc(-c5cc6c(-c7cc(F)cc(NC(=O)N8C[C@H](CC(C)C)[C@@H](O)C8)c7C)ncnc6[nH]5)cc4)CC3)CC2)cc1N1CCC(=O)NC1=O` [Compound 8, (3R,4S)—N-(3-(6-(4-((4-((1-(3-(2,4-Dioxotetrahydropyrimidin-1(2H)-yl)-4-methoxybenzoyl)piperidin-4-yl)oxy)piperidin-1-yl)methyl)phenyl)-7H-pyrrolo[2,3-d]pyrimidin-4-yl)-5-fluoro-2-methylphenyl)-3-hydroxy-4-isobutylpyrrolidine-1-carboxamide], the GI50 in assay [1] (Homo sapiens, TMD8, 72 h) was 0.4 nM. In assay [2], the “IKZF3 deg Amax %” value is given as 107.4% and the DC50 is greater than 1000 nM.

In the case of `COc1ccc(C(=O)N2CCC(CN3CCC(Oc4ccc(-c5cc6c(-c7cc(F)cc(NC(=O)N8C[C@H](CC(C)C)[C@@H](O)C8)c7C)ncnc6[nH]5)cc4)CC3)CC2)cc1N1CCC(=O)NC1=O` [Compound 11, (3R,4S)—N-(3-(6-(4-((1-((1-(3-(2,4-Dioxotetrahydropyrimidin-1 (2H)-yl)-4-methoxybenzoyl)piperidin-4-yl)methyl)piperidin-4-yl)oxy)phenyl)-7H-pyrrolo[2,3-d]pyrimidin-4-yl)-5-fluoro-2-methylphenyl)-3-hydroxy-4-isobutylpyrrolidine-1-carboxamide], the GI50 in assay [1] (Homo sapiens, TMD8, 72 h) amounted to 0.18 nM. For the same compound, in assay [2], the “IKZF3 deg Amax %” value is listed as 96.7% and the DC50 was greater than 10000 nM.

As to `COc1ccc(C(=O)N2CCC(CN3CCN(Cc4ccc(-c5cc6c(-c7cc(F)cc(NC(=O)N8C[C@H](CC(C)C)[C@@H](O)C8)c7C)ncnc6[nH]5)cc4)CC3)CC2)cc1N1CCC(=O)NC1=O` [Compound 12, (3R,4S)—N-(3-(6-(4-((4-((1-(3-(2,4-Dioxotetrahydropyrimidin-1(2H)-yl)-4-methoxybenzoyl)piperidin-4-yl)methyl)piperazin-1-yl)methyl)phenyl)-7H-pyrrolo[2,3-d]pyrimidin-4-yl)-5-fluoro-2-methylphenyl)-3-hydroxy-4-isobutylpyrrolidine-1-carboxamide], the 50% growth inhibitory concentration (GI50) in assay [1] (Homo sapiens, TMD8, 72 h) was 0.3 nM. In assay [2], the “IKZF3 deg Amax %” value worked out at 104.0% and the DC50 was greater than 1100 nM.

Take `COc1ccc(C(=O)N2CCC(OC3CCN(CCc4ccc(-c5cc6c(-c7cc(F)cc(NC(=O)N8C[C@H](CC(C)C)[C@@H](O)C8)c7C)ncnc6[nH]5)cc4)CC3)CC2)cc1N1CCC(=O)NC1=O` [Compound 13, (3R,4S)—N-(3-(6-(4-(2-(4-((1-(3-(2,4-Dioxotetrahydropyrimidin-1(2H)-yl)-4-methoxybenzoyl)piperidin-4-yl)oxy)piperidin-1-yl)ethyl)phenyl)-7H-pyrrolo[2,3-d]pyrimidin-4-yl)-5-fluoro-2-methylphenyl)-3-hydroxy-4-isobutylpyrrolidine-1-carboxamide]: the GI50 in assay [1] (Homo sapiens, TMD8, 72 h) amounted to 0.24 nM. In assay [2], the “IKZF3 deg Amax %” value amounted to 99.7% and the DC50 is greater than 3300 nM.
